# PubChem BioAssay (NCI)
#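 Exposure lasted 48 hours, with cells grown in 96-well plates and compounds tested at five concentrations. The concentration for full growth arrest is given as TGI.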
# Key:
# Assay in all cases: NCI-60 cell line screen, 48 h
# 786-0 renal = test system: 786-0 renal
# A498 renal = test system: A498 renal
# A549 NSCLC = test system: A549 NSCLC
# ACHN renal = test system: ACHN renal
# CAKI-1 renal = test system: CAKI-1 renal
# CCRF-CEM leukemia = test system: CCRF-CEM leukemia
# COLO 205 colon = test system: COLO 205 colon
# DLD-1 colon = test system: DLD-1 colon
# DMS 114 small cell lung = test system: DMS 114 small cell lung
# EKVX NSCLC = test system: EKVX NSCLC
# HCC-2998 colon = test system: HCC-2998 colon
# HCT-116 colon = test system: HCT-116 colon
# HL-60(TB) leukemia = test system: HL-60(TB) leukemia
# HOP-18 NSCLC = test system: HOP-18 NSCLC
# HOP-62 NSCLC = test system: HOP-62 NSCLC
# HOP-92 NSCLC = test system: HOP-92 NSCLC
# HT29 colon = test system: HT29 colon
# IGROV1 ovarian = test system: IGROV1 ovarian
# K-562 leukemia = test system: K-562 leukemia
# KM12 colon = test system: KM12 colon
# KM20L2 colon = test system: KM20L2 colon
# LOX IMVI melanoma = test system: LOX IMVI melanoma
# LXFL 529 NSCLC = test system: LXFL 529 NSCLC
# M14 melanoma = test system: M14 melanoma
# M19-MEL melanoma = test system: M19-MEL melanoma
# MALME-3M melanoma = test system: MALME-3M melanoma
# MOLT-4 leukemia = test system: MOLT-4 leukemia
# NCI-H226 lung = test system: NCI-H226 lung
# NCI-H23 lung = test system: NCI-H23 lung
# NCI-H522 lung = test system: NCI-H522 lung
# OVCAR-3 ovarian = test system: OVCAR-3 ovarian
# OVCAR-4 ovarian = test system: OVCAR-4 ovarian
# OVCAR-5 ovarian = test system: OVCAR-5 ovarian
# OVCAR-8 ovarian = test system: OVCAR-8 ovarian
# RPMI-8226 leukemia = test system: RPMI-8226 leukemia
# SF-268 CNS = test system: SF-268 CNS
# SF-295 CNS = test system: SF-295 CNS
# SF-539 CNS = test system: SF-539 CNS
# SK-MEL-28 melanoma = test system: SK-MEL-28 melanoma
# SK-MEL-5 melanoma = test system: SK-MEL-5 melanoma
# SK-OV-3 ovarian = test system: SK-OV-3 ovarian
# SN12C renal = test system: SN12C renal
# SNB-19 CNS = test system: SNB-19 CNS
# SNB-75 CNS = test system: SNB-75 CNS
# SW-620 colon = test system: SW-620 colon
# TK-10 renal = test system: TK-10 renal
# U251 CNS = test system: U251 CNS
# UACC-257 melanoma = test system: UACC-257 melanoma
# UACC-62 melanoma = test system: UACC-62 melanoma
# UO-31 renal = test system: UO-31 renal
# BT-549 breast = test system: BT-549 breast
# DU-145 prostate = test system: DU-145 prostate
# HCT-15 colon = test system: HCT-15 colon
# HS 578T breast = test system: HS 578T breast
# MCF7 breast = test system: MCF7 breast
# MDA-MB-231 breast = test system: MDA-MB-231 breast
# MDA-MB-435 = test system: MDA-MB-435
# MDA-N = test system: MDA-N
# NCI-H460 lung = test system: NCI-H460 lung
# NCI/ADR-RES ovarian = test system: NCI/ADR-RES ovarian
# PC-3 prostate = test system: PC-3 prostate
# RXF 393 renal = test system: RXF 393 renal
# SK-MEL-2 melanoma = test system: SK-MEL-2 melanoma
# SR leukemia = test system: SR leukemia
# T-47D breast = test system: T-47D breast
smiles,measurement,setting,value
COc1nc(NC2OC(COC(C)=O)C(OC(C)=O)C(OC(C)=O)C2OC(C)=O)c(N=CC=Nc2c(NC3OC(COC(C)=O)C(OC(C)=O)C(OC(C)=O)C3OC(C)=O)nc(OC)[nH]c2=O)c(=O)[nH]1 (configuration not stated),TGI,786-0 renal,> 100 µM
same,TGI,A498 renal,> 100 µM
same,TGI,A549 NSCLC,> 100 µM
same,TGI,ACHN renal,> 100 µM
same,TGI,CAKI-1 renal,> 100 µM
same,TGI,CCRF-CEM leukemia,> 100 µM
same,TGI,COLO 205 colon,> 100 µM
same,TGI,DLD-1 colon,> 100 µM
same,TGI,DMS 114 small cell lung,> 100 µM
same,TGI,EKVX NSCLC,> 100 µM
same,TGI,HCC-2998 colon,> 100 µM
same,TGI,HCT-116 colon,> 100 µM
same,TGI,HL-60(TB) leukemia,> 100 µM
same,TGI,HOP-18 NSCLC,> 100 µM
same,TGI,HOP-62 NSCLC,> 100 µM
same,TGI,HOP-92 NSCLC,> 100 µM
same,TGI,HT29 colon,> 100 µM
same,TGI,IGROV1 ovarian,> 100 µM
same,TGI,K-562 leukemia,> 100 µM
same,TGI,KM12 colon,> 100 µM
same,TGI,KM20L2 colon,> 100 µM
same,TGI,LOX IMVI melanoma,> 100 µM
same,TGI,LXFL 529 NSCLC,> 100 µM
same,TGI,M14 melanoma,> 100 µM
same,TGI,M19-MEL melanoma,> 100 µM
same,TGI,MALME-3M melanoma,> 100 µM
same,TGI,MOLT-4 leukemia,> 100 µM
same,TGI,NCI-H226 lung,> 100 µM
same,TGI,NCI-H23 lung,> 100 µM
same,TGI,NCI-H522 lung,> 100 µM
same,TGI,OVCAR-3 ovarian,> 100 µM
same,TGI,OVCAR-4 ovarian,> 100 µM
same,TGI,OVCAR-5 ovarian,> 100 µM
same,TGI,OVCAR-8 ovarian,> 100 µM
same,TGI,RPMI-8226 leukemia,> 100 µM
same,TGI,SF-268 CNS,> 100 µM
same,TGI,SF-295 CNS,> 100 µM
same,TGI,SF-539 CNS,> 100 µM
same,TGI,SK-MEL-28 melanoma,> 100 µM
same,TGI,SK-MEL-5 melanoma,> 100 µM
same,TGI,SK-OV-3 ovarian,> 100 µM
same,TGI,SN12C renal,> 100 µM
same,TGI,SNB-19 CNS,> 100 µM
same,TGI,SNB-75 CNS,> 100 µM
same,TGI,SW-620 colon,> 100 µM
same,TGI,TK-10 renal,> 100 µM
same,TGI,U251 CNS,> 100 µM
same,TGI,UACC-257 melanoma,> 100 µM
same,TGI,UACC-62 melanoma,> 100 µM
same,TGI,UO-31 renal,> 100 µM
O=C(O)/C=C\C(=O)Nc1ccc2c(c1)-c1ccccc1C2,TGI,786-0 renal,> 100 µM
same,TGI,A498 renal,> 100 µM
same,TGI,A549 NSCLC,> 100 µM
same,TGI,ACHN renal,> 100 µM
same,TGI,BT-549 breast,> 100 µM
same,TGI,CAKI-1 renal,> 100 µM
same,TGI,CCRF-CEM leukemia,> 100 µM
same,TGI,COLO 205 colon,> 100 µM
same,TGI,DU-145 prostate,> 100 µM
same,TGI,EKVX NSCLC,> 100 µM
same,TGI,HCC-2998 colon,> 100 µM
same,TGI,HCT-116 colon,> 100 µM
same,TGI,HCT-15 colon,> 100 µM
same,TGI,HL-60(TB) leukemia,> 100 µM
same,TGI,HOP-62 NSCLC,> 100 µM
same,TGI,HOP-92 NSCLC,> 100 µM
same,TGI,HS 578T breast,> 100 µM
same,TGI,HT29 colon,> 100 µM
same,TGI,IGROV1 ovarian,> 100 µM
same,TGI,K-562 leukemia,> 100 µM
same,TGI,KM12 colon,> 100 µM
same,TGI,LOX IMVI melanoma,> 100 µM
same,TGI,M14 melanoma,> 100 µM
same,TGI,MALME-3M melanoma,> 100 µM
same,TGI,MCF7 breast,> 100 µM
same,TGI,MDA-MB-231 breast,> 100 µM
same,TGI,MDA-MB-435,> 100 µM
same,TGI,MDA-N,> 100 µM
same,TGI,NCI-H226 lung,78.2 µM
same,TGI,NCI-H23 lung,> 100 µM
same,TGI,NCI-H460 lung,> 100 µM
same,TGI,NCI-H522 lung,> 100 µM
same,TGI,NCI/ADR-RES ovarian,> 100 µM
same,TGI,OVCAR-3 ovarian,> 100 µM
same,TGI,OVCAR-4 ovarian,> 100 µM
same,TGI,OVCAR-5 ovarian,> 100 µM
same,TGI,OVCAR-8 ovarian,> 100 µM
same,TGI,PC-3 prostate,> 100 µM
same,TGI,RPMI-8226 leukemia,> 100 µM
same,TGI,RXF 393 renal,> 100 µM
same,TGI,SF-268 CNS,> 100 µM
same,TGI,SF-295 CNS,> 100 µM
same,TGI,SK-MEL-2 melanoma,> 100 µM
same,TGI,SK-MEL-28 melanoma,> 100 µM
same,TGI,SK-MEL-5 melanoma,> 100 µM
same,TGI,SK-OV-3 ovarian,> 100 µM
same,TGI,SN12C renal,> 100 µM
same,TGI,SNB-19 CNS,> 100 µM
same,TGI,SNB-75 CNS,> 100 µM
same,TGI,SR leukemia,> 100 µM
same,TGI,SW-620 colon,> 100 µM
same,TGI,T-47D breast,> 100 µM
same,TGI,TK-10 renal,> 100 µM
same,TGI,U251 CNS,> 100 µM
same,TGI,UACC-257 melanoma,> 100 µM
same,TGI,UACC-62 melanoma,> 100 µM
same,TGI,UO-31 renal,> 100 µM
